Tested on: 377384-186-R-J1-PDC complex spheroid viability
Experiment: Anticancer human tumor 377384-186-R-J1-PDC patient-derived pancreatic carcinoma cell line growth inhibition [RAS]
Details: for IC50: curve of first compound; for viability, T/C: stronger effect = lower value; active means viability on the fitted dose curve at most 10% of control; inactive means the rest
Outline: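 Multi-cell-type spheroids: tumor cells plus HUVEC endothelial cells and mesenchymal stem cells. RAS-pathway inhibitors were combined with targeted agents, each dosed in half-log steps down from clinical Cmax, or from 10 microM when Cmax was unknown.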

[1] = second compound 0.000949 µM, first compound 0.00316 µM
[2] = second compound 0.000949 µM, first compound 0.01 µM
[3] = second compound 0.000949 µM, first compound 0.0316 µM
[4] = second compound 0.000949 µM, first compound 0.1 µM
[5] = second compound 0.000949 µM, first compound 0.316 µM
[6] = second compound 0.000949 µM, first compound 1 µM
[7] = second compound 0.003 µM, first compound 0.00316 µM
[8] = second compound 0.003 µM, first compound 0.01 µM
[9] = second compound 0.003 µM, first compound 0.0316 µM
[10] = second compound 0.003 µM, first compound 0.1 µM
[11] = second compound 0.003 µM, first compound 0.316 µM
[12] = second compound 0.003 µM, first compound 1 µM
[13] = second compound 0.00949 µM, first compound 0.00316 µM
[14] = second compound 0.00949 µM, first compound 0.01 µM
[15] = second compound 0.00949 µM, first compound 0.0316 µM
[16] = second compound 0.00949 µM, first compound 0.1 µM
[17] = second compound 0.00949 µM, first compound 0.316 µM
[18] = second compound 0.00949 µM, first compound 1 µM
[19] = second compound 0.03 µM, first compound 0.00316 µM
[20] = second compound 0.03 µM, first compound 0.01 µM
[21] = second compound 0.03 µM, first compound 0.0316 µM
[22] = second compound 0.03 µM, first compound 0.1 µM
[23] = second compound 0.03 µM, first compound 0.316 µM
[24] = second compound 0.03 µM, first compound 1 µM
[25] = second compound 0.0949 µM, first compound 0.00316 µM
[26] = second compound 0.0949 µM, first compound 0.01 µM
[27] = second compound 0.0949 µM, first compound 0.0316 µM
[28] = second compound 0.0949 µM, first compound 0.1 µM
[29] = second compound 0.0949 µM, first compound 0.316 µM
[30] = second compound 0.0949 µM, first compound 1 µM
[31] = second compound 0.3 µM, first compound 0.00316 µM
[32] = second compound 0.3 µM, first compound 0.01 µM
[33] = second compound 0.3 µM, first compound 0.0316 µM
[34] = second compound 0.3 µM, first compound 0.1 µM
[35] = second compound 0.3 µM, first compound 0.316 µM
[36] = second compound 0.3 µM, first compound 1 µM
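Further: spheroids exposed to compounds for seven days before readout.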

C=CC(=O)N1CCN(c2nc(OCC3CCCN3C)nc3c(F)c(-c4nc(N)cc(C)c4C(F)(F)F)c(Cl)cc23)C(C)C1 (stereo not drawn) + CCn1c(-c2cc(N3CCN(C)CC3)cnc2C(C)OC)c2c3cc(ccc31)-c1csc(n1)CC(NC(=O)C1CC1C)C(=O)N1CCCC(N1)C(=O)OCC(C)(C)C2
> 1000 nM: IC50 (second compound 0.000949 µM)
inactive: viability, T/C [1] 57.6% | viability, T/C [2] 48.5% | viability, T/C [3] 58% | viability, T/C [4] 62.1% | viability, T/C [5] 61.6% | viability, T/C [6] 48% | viability, T/C [7] 19.5% | viability, T/C [8] 19.7% | viability, T/C [9] 21.2% | viability, T/C [10] 19.3% | viability, T/C [11] 27.7% | viability, T/C [12] 22.1%
< 3.16 nM: IC50 (second compound 0.003 µM) | IC50 (second compound 0.00949 µM) | IC50 (second compound 0.03 µM) | IC50 (second compound 0.0949 µM) | IC50 (second compound 0.3 µM)
active: viability, T/C [13] 5.16% | viability, T/C [14] 6.78% | viability, T/C [15] 4.26% | viability, T/C [16] 6.19% | viability, T/C [17] 8.67% | viability, T/C [18] 5.16% | viability, T/C [19] 2.65% | viability, T/C [20] 2.3% | viability, T/C [21] 2.75% | viability, T/C [22] 3.22% | viability, T/C [23] 2.42% | viability, T/C [24] 1.95% | viability, T/C [25] 2.35% | viability, T/C [26] 2.29% | viability, T/C [27] 2.53% | viability, T/C [28] 2.6% | viability, T/C [29] 2.41% | viability, T/C [30] 1.71% | viability, T/C [31] 2.58% | viability, T/C [32] 2.04% | viability, T/C [33] 1.61% | viability, T/C [34] 1.52% | viability, T/C [35] 1.71% | viability, T/C [36] 1.54%

CC1(C)CCC(Nc2ncc(C(F)(F)F)c(-c3c[nH]c4c(P(C)(C)=O)c(C#N)ccc34)n2)CN1 (stereo not drawn) + CCn1c(-c2cc(N3CCN(C)CC3)cnc2C(C)OC)c2c3cc(ccc31)-c1csc(n1)CC(NC(=O)C1CC1C)C(=O)N1CCCC(N1)C(=O)OCC(C)(C)C2
< 0.949 nM: IC50 (second compound 0.000949 µM) | IC50 (second compound 0.003 µM) | IC50 (second compound 0.00949 µM) | IC50 (second compound 0.03 µM) | IC50 (second compound 0.0949 µM) | IC50 (second compound 0.3 µM)
inactive: viability, T/C (second compound 0.000949 µM, first compound 0.000949 µM) 42.6% | viability, T/C (second compound 0.000949 µM, first compound 0.003 µM) 37.1% | viability, T/C (second compound 0.000949 µM, first compound 0.00949 µM) 22.9% | viability, T/C (second compound 0.000949 µM, first compound 0.03 µM) 16.4% | viability, T/C (second compound 0.000949 µM, first compound 0.0949 µM) 14.9% | viability, T/C (second compound 0.000949 µM, first compound 0.3 µM) 14% | viability, T/C (second compound 0.003 µM, first compound 0.000949 µM) 21.9% | viability, T/C (second compound 0.003 µM, first compound 0.003 µM) 16.8% | viability, T/C (second compound 0.003 µM, first compound 0.00949 µM) 10.4% | viability, T/C (second compound 0.003 µM, first compound 0.03 µM) 9.92%
active: viability, T/C (second compound 0.003 µM, first compound 0.0949 µM) 11.7% | viability, T/C (second compound 0.003 µM, first compound 0.3 µM) 8.33% | viability, T/C (second compound 0.00949 µM, first compound 0.000949 µM) 6.47% | viability, T/C (second compound 0.00949 µM, first compound 0.003 µM) 5.75% | viability, T/C (second compound 0.00949 µM, first compound 0.00949 µM) 5.48% | viability, T/C (second compound 0.00949 µM, first compound 0.03 µM) 5.23% | viability, T/C (second compound 0.00949 µM, first compound 0.0949 µM) 5.63% | viability, T/C (second compound 0.00949 µM, first compound 0.3 µM) 5.21% | viability, T/C (second compound 0.03 µM, first compound 0.000949 µM) 2.48% | viability, T/C (second compound 0.03 µM, first compound 0.003 µM) 2.69% | viability, T/C (second compound 0.03 µM, first compound 0.00949 µM) 2.99% | viability, T/C (second compound 0.03 µM, first compound 0.03 µM) 3.34% | viability, T/C (second compound 0.03 µM, first compound 0.0949 µM) 2.03% | viability, T/C (second compound 0.03 µM, first compound 0.3 µM) 1.64% | viability, T/C (second compound 0.0949 µM, first compound 0.000949 µM) 2.02% | viability, T/C (second compound 0.0949 µM, first compound 0.003 µM) 2.11% | viability, T/C (second compound 0.0949 µM, first compound 0.00949 µM) 1.57% | viability, T/C (second compound 0.0949 µM, first compound 0.03 µM) 1.95% | viability, T/C (second compound 0.0949 µM, first compound 0.0949 µM) 1.46% | viability, T/C (second compound 0.0949 µM, first compound 0.3 µM) 1.6% | viability, T/C (second compound 0.3 µM, first compound 0.000949 µM) 1.8% | viability, T/C (second compound 0.3 µM, first compound 0.003 µM) 1.64% | viability, T/C (second compound 0.3 µM, first compound 0.00949 µM) 1.69% | viability, T/C (second compound 0.3 µM, first compound 0.03 µM) 2.15% | viability, T/C (second compound 0.3 µM, first compound 0.0949 µM) 1.77% | viability, T/C (second compound 0.3 µM, first compound 0.3 µM) 1.54%

C=CC(=O)Nc1cc(Nc2nccc(-c3cn(C)c4ccccc34)n2)c(OC)cc1N(C)CCN(C)C + CCn1c(-c2cccnc2C(C)OC)c2c3cc(ccc31)N1CCOC(CC(NC(=O)C(C(C)C)N(C)C(=O)C3(F)CCN(C(=O)C#CC(C)(C)N(C)C)CC3)C(=O)N3CCCC(N3)C(=O)OCC(C)(C)C2)C1
682 nM: IC50 (second compound 0.00949 µM)
699 nM: IC50 (second compound 0.03 µM)
inactive: viability, T/C [1] 107% | viability, T/C [2] 83.9% | viability, T/C [3] 94.3% | viability, T/C [4] 84.5% | viability, T/C [5] 77.6% | viability, T/C [6] 40% | viability, T/C [7] 93.3% | viability, T/C [8] 96.2% | viability, T/C [9] 101% | viability, T/C [10] 80% | viability, T/C [11] 62.9% | viability, T/C [12] 44.2% | viability, T/C [13] 101% | viability, T/C [14] 100% | viability, T/C [15] 90.5% | viability, T/C [16] 84.6% | viability, T/C [17] 64.1% | viability, T/C [18] 42.6% | viability, T/C [19] 104% | viability, T/C [20] 99.1% | viability, T/C [21] 97.6% | viability, T/C [22] 75.6% | viability, T/C [23] 69.9% | viability, T/C [24] 41.9% | viability, T/C [25] 91.3% | viability, T/C [26] 90.2% | viability, T/C [27] 85% | viability, T/C [28] 76.7% | viability, T/C [29] 66% | viability, T/C [30] 37.7% | viability, T/C [31] 77.7% | viability, T/C [32] 81% | viability, T/C [33] 80.7% | viability, T/C [34] 82.4% | viability, T/C [35] 64.3% | viability, T/C [36] 40.9%
727 nM: IC50 (second compound 0.000949 µM)
598 nM: IC50 (second compound 0.0949 µM)
694 nM: IC50 (second compound 0.003 µM)
639 nM: IC50 (second compound 0.3 µM)

O=C(c1ccc(F)c(F)c1Nc1ccc(I)cc1F)N1CC(O)([C@@H]2CCCCN2)C1 + CCn1c(-c2cccnc2C(C)OC)c2c3cc(ccc31)N1CCOC(CC(NC(=O)C(C(C)C)N(C)C(=O)C3(F)CCN(C(=O)C#CC(C)(C)N(C)C)CC3)C(=O)N3CCCC(N3)C(=O)OCC(C)(C)C2)C1
44.8 nM: IC50 (second compound 0.003 µM)
33.2 nM: IC50 (second compound 0.000949 µM)
active: viability, T/C [5] 1.96% | viability, T/C [6] 1.6% | viability, T/C [11] 2.13% | viability, T/C [12] 0.43% | viability, T/C [17] 1.75% | viability, T/C [18] 0.87% | viability, T/C [23] 4.23% | viability, T/C [24] 0.57% | viability, T/C [29] 1.32% | viability, T/C [30] 0.36% | viability, T/C [35] 0.96% | viability, T/C [36] 0.43%
29.9 nM: IC50 (second compound 0.0949 µM)
28.6 nM: IC50 (second compound 0.00949 µM)
16.8 nM: IC50 (second compound 0.3 µM)
36 nM: IC50 (second compound 0.03 µM)
inactive: viability, T/C [1] 87.5% | viability, T/C [2] 85.8% | viability, T/C [3] 49.2% | viability, T/C [4] 17.4% | viability, T/C [7] 103% | viability, T/C [8] 89.2% | viability, T/C [9] 63.1% | viability, T/C [10] 22.7% | viability, T/C [13] 98.8% | viability, T/C [14] 75% | viability, T/C [15] 50.3% | viability, T/C [16] 19.1% | viability, T/C [19] 96.2% | viability, T/C [20] 77.8% | viability, T/C [21] 57.3% | viability, T/C [22] 18.9% | viability, T/C [25] 85.5% | viability, T/C [26] 77.8% | viability, T/C [27] 47.5% | viability, T/C [28] 17.7% | viability, T/C [31] 77.1% | viability, T/C [32] 60.6% | viability, T/C [33] 36.9% | viability, T/C [34] 10.7%

— PubChem BioAssay AID2060903 (Molecular Pharmacology Branch, DTP, NCI, 2025)
